Blank lines part the entries; values can stand above or below the compound they belong to.
System: 857933-349-R-J2-PDC complex spheroids, viability
Experiment: Anticancer human tumor 857933-349-R-J2-PDC patient-derived colon adenocarcinoma cell line growth inhibition [GQUAD]
Conditions: for IC50: curve of first compound; for viability, T/C: stronger effect = lower value
From the text: DNA G-quadruplex Stabilizer Agents in Combinations in Complex Spheroids
A high-throughput screen of multi-cell type tumor spheroids was designed to identify active combinations of DNA G-quadruplex stabilizer agents and targeted small molecules. Complex spheroids include a stromal component modeled by human endothelial cells (HUVEC) and fibroblasts modeled by human mesenchymal stem cells (MSCs). The concentration ranges selected for each drug and investigational agent were based upon clinically achievable concentrations if the clinical Cmax of the agent was known.
Compounds. The drugs and investigational agents: pidnarulex (CX-5461; NSC782164), APTO-253 (NSC789042), BRACO-19 (NSC847499), peposertib (NSC802822), ceralasertib (NSC780249), elimusertib (NSC800525), camonsertib (NSC841442), AZD-1390 (NSC803789), olaparib (NSC753686), talazoparib (NSC767125), ART-558 (NSC835418), sotorasib (NSC818433), MRTX-1133 (NSC836407), SN-38 (NSC673596), topotecan (NSC609699), etoposide (NSC141540), doxorubicin (NSC123127), gemcitabine (NSC613327), 5-fluorouracil (NSC19893), paclitaxel (NSC125973), vemurafenib (NSC761431), panobinostat (NSC761190), R-306465 (JNJ-16241199; NSC773264), adavosertib (NSC754352), TP-3654 (NSC805149), carboplatin (NSC241240), KSQ-4279 (NSC840948), and staurosporine (NSC755774) were obtained from the National Cancer Institute (NCI) Developmental Therapeutics Program Chemical Repository (34). The FDA-approved anticancer drug set is available from the NCI Developmental Therapeutics Program. […] The stock solutions were prepared in dimethyl sulfoxide (DMSO, Sigma-Aldrich, St. Louis, MO, cat. D2650) at 800-fold the tested concentration and stored at -70 degrees C prior to their use. All drugs and investigational agents were tested over a range starting from a high concentration at or near the clinical Cmax and decreasing in half-log increments. If the clinical Cmax for an agent had not been determined, the highest concentration tested was 10 microM.
2.3 Cell Culture. All cells were maintained in an incubator at 37 degrees C and 5% CO2 with 95% humidity. The PDC lines were cultured according to standard operating procedures established by the NCI PDMR. All PDCs were thawed and cultured in Matrigel-coated flasks prepared with a working solution of 1X Ham's F-12 nutrient mix, without supplementation (Invitrogen, cat. 11765054), 100 U/mL penicillin-streptomycin (Invitrogen, cat. 15140122), and 2.5% Matrigel (Corning Inc., cat. 354248) for the first three passages. The 857933-349-R-J2-PDC line was cultured in 6C/Colon 1B media, which includes advanced DMEM/F-12 (Thermo Fisher Scientific, cat. 12634028), 10 mM HEPES (Thermo Fisher Scientific, cat. 15630080), 1X GlutaMAX supplement (Thermo Fisher Scientific, cat. 35050061), 0.1 mg/mL primocin (InvivoGen, cat. ant-pm-2), 10% defined fetal bovine serum, heat inactivated (HyClone Laboratories Inc., cat. SH30070.03HI), 50% L-WRN conditioned media (ATCC, cat. CRL-3276), 1.25 mM N-Acetyl-L-cysteine (Sigma-Aldrich, cat. A9165), 10 mM nicotinamide (Sigma-Aldrich, cat. N0636), 1X B-27 supplement (Thermo Fisher Scientific, cat. 17504044), 1X N-2 supplement (Thermo Fisher Scientific, cat. 17502048), 10 microM Y-27632 dihydrochloride (Tocris Bioscience, cat. 1254), and 50 ng/mL human EGF recombinant protein (Thermo Fisher Scientific, cat. PHG0311). The 485176-168-R4-J1-PDC line was cultured in Panc media, which includes all 6C/Colon 1B media components plus 100 ng/mL human FGF-10 (Thermo Fisher Scientific, cat. 100-26), 500 nM SB-431542 (Selleckchem, cat. S1067), and gastrin (Tocris, cat. 3006).
[…]

[1] = second compound 0.0316 µM, first compound 0.0316 µM
[2] = second compound 0.0316 µM, first compound 0.316 µM
[3] = second compound 0.1 µM, first compound 0.0316 µM
[4] = second compound 0.1 µM, first compound 0.316 µM
[5] = second compound 0.316 µM, first compound 0.0316 µM
[6] = second compound 0.316 µM, first compound 0.316 µM
[7] = second compound 1 µM, first compound 0.0316 µM
[8] = second compound 1 µM, first compound 0.316 µM
[9] = second compound 3.16 µM, first compound 0.0316 µM
[10] = second compound 3.16 µM, first compound 0.316 µM
[11] = second compound 10 µM, first compound 0.0316 µM
[12] = second compound 10 µM, first compound 0.316 µM
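Further: spheroids exposed to compounds for one week before readout.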
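Wherever viability, T/C is given: percent viability relative to vehicle DMSO wells taken as 100%.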

SMILES: Nc1ccn(C2OC(CO)C(O)C2(F)F)c(=O)n1 (centres undefined) + Cc1[nH]c2ccc(F)cc2c1-c1nc2c3cccnc3c3ncccc3c2[nH]1
IC50 (second compound 0.0316 µM): 337 nM | IC50 (second compound 0.1 µM): 153 nM | IC50 (second compound 0.316 µM): 339 nM | IC50 (second compound 1 µM): 169 nM | IC50 (second compound 3.16 µM): 270 nM | IC50 (second compound 10 µM): 255 nM | viability, T/C [1]: 73.6% | viability, T/C (second compound 0.0316 µM, first compound 0.1 µM): 50.7% | viability, T/C [2]: 53% | viability, T/C (second compound 0.0316 µM, first compound 1 µM): 12.2% | viability, T/C (second compound 0.0316 µM, first compound 3.16 µM): 8.63% | viability, T/C (second compound 0.0316 µM, first compound 10 µM): 7.04% | viability, T/C [3]: 81.9% | viability, T/C (second compound 0.1 µM, first compound 0.1 µM): 55.6% | viability, T/C [4]: 40.1% | viability, T/C (second compound 0.1 µM, first compound 1 µM): 13.4% | viability, T/C (second compound 0.1 µM, first compound 3.16 µM): 8.84% | viability, T/C (second compound 0.1 µM, first compound 10 µM): 6.64% | viability, T/C [5]: 71.9% | viability, T/C (second compound 0.316 µM, first compound 0.1 µM): 54.7% | viability, T/C [6]: 53.2% | viability, T/C (second compound 0.316 µM, first compound 1 µM): 12% | viability, T/C (second compound 0.316 µM, first compound 3.16 µM): 7.77% | viability, T/C (second compound 0.316 µM, first compound 10 µM): 6.81% | viability, T/C [7]: 76.5% | viability, T/C (second compound 1 µM, first compound 0.1 µM): 54.2% | viability, T/C [8]: 45.2% | viability, T/C (second compound 1 µM, first compound 1 µM): 10.6% | viability, T/C (second compound 1 µM, first compound 3.16 µM): 8.22% | viability, T/C (second compound 1 µM, first compound 10 µM): 6.71% | viability, T/C [9]: 74.5% | viability, T/C (second compound 3.16 µM, first compound 0.1 µM): 53.2% | viability, T/C [10]: 50.2% | viability, T/C (second compound 3.16 µM, first compound 1 µM): 11.6% | viability, T/C (second compound 3.16 µM, first compound 3.16 µM): 8.23% | viability, T/C (second compound 3.16 µM, first compound 10 µM): 7.07% | viability, T/C [11]: 73% | viability, T/C (second compound 10 µM, first compound 0.1 µM): 47.9% | viability, T/C [12]: 48.8% | viability, T/C (second compound 10 µM, first compound 1 µM): 10.1% | viability, T/C (second compound 10 µM, first compound 3.16 µM): 7.69% | viability, T/C (second compound 10 µM, first compound 10 µM): 8.66%

IC50 (second compound 0.0316 µM): > 316 nM | IC50 (second compound 0.1 µM): > 316 nM | IC50 (second compound 0.316 µM): < 0.999 nM | IC50 (second compound 1 µM): < 0.999 nM | IC50 (second compound 3.16 µM): < 0.999 nM | IC50 (second compound 10 µM): < 0.999 nM
SMILES: Cn1ncnc1[C@H]1c2n[nH]c(=O)c3cc(F)cc(c23)N[C@@H]1c1ccc(F)cc1 + Cc1cnc(CNC(=O)c2c(=O)c3ccc(N4CCCN(C)CC4)nc3n3c2sc2ccccc23)cn1
viability, T/C (second compound 0.0316 µM, first compound 0.000999 µM): 88.5% | viability, T/C (second compound 0.0316 µM, first compound 0.00316 µM): 89.1% | viability, T/C (second compound 0.0316 µM, first compound 0.00999 µM): 93.4% | viability, T/C [1]: 95% | viability, T/C (second compound 0.0316 µM, first compound 0.0999 µM): 88.9% | viability, T/C [2]: 81.7% | viability, T/C (second compound 0.1 µM, first compound 0.000999 µM): 59.6% | viability, T/C (second compound 0.1 µM, first compound 0.00316 µM): 73.6% | viability, T/C (second compound 0.1 µM, first compound 0.00999 µM): 62.5% | viability, T/C [3]: 71.9% | viability, T/C (second compound 0.1 µM, first compound 0.0999 µM): 73.5% | viability, T/C [4]: 65.6% | viability, T/C (second compound 0.316 µM, first compound 0.000999 µM): 28.8% | viability, T/C (second compound 0.316 µM, first compound 0.00316 µM): 27.8% | viability, T/C (second compound 0.316 µM, first compound 0.00999 µM): 27.1% | viability, T/C [5]: 22.5% | viability, T/C (second compound 0.316 µM, first compound 0.0999 µM): 29.8% | viability, T/C [6]: 31.5% | viability, T/C (second compound 1 µM, first compound 0.000999 µM): 7% | viability, T/C (second compound 1 µM, first compound 0.00316 µM): 5.78% | viability, T/C (second compound 1 µM, first compound 0.00999 µM): 5.4% | viability, T/C [7]: 5.4% | viability, T/C (second compound 1 µM, first compound 0.0999 µM): 5.1% | viability, T/C [8]: 5.12% | viability, T/C (second compound 3.16 µM, first compound 0.000999 µM): 2.09% | viability, T/C (second compound 3.16 µM, first compound 0.00316 µM): 2.13% | viability, T/C (second compound 3.16 µM, first compound 0.00999 µM): 2.38% | viability, T/C [9]: 2.9% | viability, T/C (second compound 3.16 µM, first compound 0.0999 µM): 3.1% | viability, T/C [10]: 2.73% | viability, T/C (second compound 10 µM, first compound 0.000999 µM): 1.74% | viability, T/C (second compound 10 µM, first compound 0.00316 µM): 2.35% | viability, T/C (second compound 10 µM, first compound 0.00999 µM): 2.39% | viability, T/C [11]: 2.68% | viability, T/C (second compound 10 µM, first compound 0.0999 µM): 2.08% | viability, T/C [12]: 2.52%

— PubChem BioAssay AID2060491 (Molecular Pharmacology Branch, DTP, NCI, 2025)
